Data as given in ChEMBL document CHEMBL1201862, “PubChem BioAssay data set” (2004).
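How tested: cells in 96-well plates exposed to compound for 48 hours at five concentrations. GI50 marks 50% less growth.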 Calls of active or inactive are those of the source. No stated cut-off is given here; in the data, active = GI50 up to about 1.1 µM and inactive = higher.

Key:
Assay in all cases: DTP human tumour cell line panel, 48 h
NCI-H522 = tested on: NCI-H522
NCI-H23 = tested on: NCI-H23
OVCAR-3 = tested on: OVCAR-3
SF-268 = tested on: SF-268
HCT-15 = tested on: HCT-15
DMS-273 = tested on: DMS-273
A549 = tested on: A549
HOP-62 = tested on: HOP-62
IGROV-1 = tested on: IGROV-1
M19-MEL = tested on: M19-MEL
HOP-92 = tested on: HOP-92
SW-620 = tested on: SW-620
RPMI-8226 = tested on: RPMI-8226
HCC 2998 = tested on: HCC 2998
CAKI-1 = tested on: CAKI-1
UACC-257 = tested on: UACC-257
NCI/ADR-RES = tested on: NCI/ADR-RES
SNB-78 = tested on: SNB-78
HL-60 = tested on: HL-60
HOP-18 = tested on: HOP-18
SK-MEL-28 = tested on: SK-MEL-28
SN12C = tested on: SN12C
Malme-3M = tested on: Malme-3M
EKVX = tested on: EKVX
KM12 = tested on: KM12
UO-31 = tested on: UO-31
U-251 = tested on: U-251
NCI-H460 = tested on: NCI-H460
COLO 205 = tested on: COLO 205
DMS-114 = tested on: DMS-114
SF-539 = tested on: SF-539
SNB-19 = tested on: SNB-19
SNB-75 = tested on: SNB-75
OVCAR-5 = tested on: OVCAR-5
XF498 = tested on: XF498
OVCAR-4 = tested on: OVCAR-4
K562 = tested on: K562
DLD-1 = tested on: DLD-1
RXF 393 = tested on: RXF 393
OVCAR-8 = tested on: OVCAR-8
MCF7 = tested on: MCF7
MOLT-4 = tested on: MOLT-4
A498 = tested on: A498
KM-20L2 = tested on: KM-20L2
HT-29 = tested on: HT-29
SK-MEL-5 = tested on: SK-MEL-5
SK-MEL-2 = tested on: SK-MEL-2
SF-295 = tested on: SF-295
UACC-62 = tested on: UACC-62
CCRF-CEM = tested on: CCRF-CEM
LOX IMVI = tested on: LOX IMVI
NCI-H226 = tested on: NCI-H226
SK-OV-3 = tested on: SK-OV-3
HCT-116 = tested on: HCT-116
ACHN = tested on: ACHN
TK-10 = tested on: TK-10
M14 = tested on: M14
786-0 = tested on: 786-0

O=C1C=CC2OC(c3ccccc3)C(O)C2O1 (stereo unspecified)
GI50 (NCI-H522): 1.35 µM (inactive)
GI50 (NCI-H23): 3.07 µM (inactive)
GI50 (OVCAR-3): 3.5 µM (inactive)
GI50 (SF-268): 5.53 µM (inactive)
GI50 (HCT-15): 3.42 µM
GI50 (DMS-273): 4.91 µM (inactive)
GI50 (A549): 5.74 µM (inactive)
GI50 (HOP-62): 12 µM (inactive)
GI50 (IGROV-1): 8.99 µM (inactive)
GI50 (M19-MEL): 12 µM (inactive)
GI50 (HOP-92): 2.15 µM (inactive)
GI50 (SW-620): 2.17 µM (inactive)
GI50 (RPMI-8226): 1.39 µM (inactive)
GI50 (HCC 2998): 2.47 µM (inactive)
GI50 (CAKI-1): 2.85 µM (inactive)
GI50 (UACC-257): 6.31 µM (inactive)
GI50 (NCI/ADR-RES): 2.94 µM (inactive)
GI50 (SNB-78): 7.08 µM (inactive)
GI50 (HL-60): 1.4 µM (inactive)
GI50 (HOP-18): 0.984 µM (active)
GI50 (SK-MEL-28): 4.49 µM (inactive)
GI50 (SN12C): 7.03 µM (inactive)
GI50 (Malme-3M): 3.02 µM (inactive)
GI50 (EKVX): 4.91 µM (inactive)
GI50 (KM12): 6.76 µM (inactive)
GI50 (UO-31): 10.2 µM (inactive)
GI50 (U-251): 10.7 µM (inactive)
GI50 (NCI-H460): 4.7 µM (inactive)
GI50 (COLO 205): 2.58 µM (inactive)
GI50 (DMS-114): 4.57 µM (inactive)
GI50 (SF-539): 3.07 µM (inactive)
GI50 (SNB-19): 11.4 µM (inactive)
GI50 (SNB-75): 10.4 µM (inactive)
GI50 (OVCAR-5): 9.38 µM (inactive)
GI50 (XF498): 2.8 µM (inactive)
GI50 (OVCAR-4): 7.87 µM (inactive)
GI50 (K562): 3.37 µM (inactive)
GI50 (DLD-1): 3.89 µM (inactive)
GI50 (RXF 393): 1.37 µM (inactive)
GI50 (OVCAR-8): 3.62 µM (inactive)
GI50 (MCF7): 6.07 µM (inactive)
GI50 (MOLT-4): 1.43 µM (inactive)
GI50 (A498): 2.27 µM (inactive)
GI50 (KM-20L2): 5.98 µM (inactive)
GI50 (HT-29): 4.53 µM (inactive)
GI50 (SK-MEL-5): 7.33 µM (inactive)
GI50 (SK-MEL-2): 2.75 µM (inactive)
GI50 (SF-295): 7.71 µM (inactive)
GI50 (UACC-62): 4.94 µM (inactive)
GI50 (CCRF-CEM): 1.15 µM (inactive)
GI50 (LOX IMVI): 1.95 µM (inactive)
GI50 (NCI-H226): 1.48 µM (inactive)
GI50 (SK-OV-3): 13.8 µM (inactive)
GI50 (HCT-116): 2.49 µM (inactive)

CC1CC(=O)CC[C@@H]1OCc1ccccc1 (stereo partly specified)
GI50 (NCI-H23): > 100 µM (inactive)
GI50 (OVCAR-3): > 100 µM (inactive)
GI50 (SF-268): > 100 µM (inactive)
GI50 (HCT-15): > 100 µM
GI50 (DMS-273): > 100 µM (inactive)
GI50 (A549): > 100 µM (inactive)
GI50 (HOP-62): > 100 µM (inactive)
GI50 (IGROV-1): > 100 µM (inactive)
GI50 (M19-MEL): > 100 µM (inactive)
GI50 (SW-620): > 100 µM (inactive)
GI50 (ACHN): > 100 µM (inactive)
GI50 (RPMI-8226): 47 µM (inactive)
GI50 (HCC 2998): > 100 µM (inactive)
GI50 (CAKI-1): > 100 µM (inactive)
GI50 (UACC-257): > 100 µM (inactive)
GI50 (SNB-78): > 100 µM (inactive)
GI50 (TK-10): > 100 µM (inactive)
GI50 (HL-60): > 100 µM (inactive)
GI50 (HOP-18): > 100 µM (inactive)
GI50 (SN12C): > 100 µM (inactive)
GI50 (Malme-3M): > 100 µM (inactive)
GI50 (EKVX): > 100 µM (inactive)
GI50 (KM12): > 100 µM (inactive)
GI50 (UO-31): > 100 µM (inactive)
GI50 (U-251): > 100 µM (inactive)
GI50 (NCI-H460): > 100 µM (inactive)
GI50 (COLO 205): > 100 µM (inactive)
GI50 (DMS-114): 94.2 µM (inactive)
GI50 (SF-539): > 100 µM (inactive)
GI50 (SNB-19): > 100 µM (inactive)
GI50 (SNB-75): > 100 µM (inactive)
GI50 (OVCAR-5): > 100 µM (inactive)
GI50 (M14): > 100 µM (inactive)
GI50 (XF498): > 100 µM (inactive)
GI50 (OVCAR-4): > 100 µM (inactive)
GI50 (K562): 58.1 µM (inactive)
GI50 (DLD-1): > 100 µM (inactive)
GI50 (RXF 393): > 100 µM (inactive)
GI50 (OVCAR-8): > 100 µM (inactive)
GI50 (786-0): > 100 µM (inactive)
GI50 (MOLT-4): 54.3 µM (inactive)
GI50 (A498): > 100 µM (inactive)
GI50 (KM-20L2): > 100 µM (inactive)
GI50 (HT-29): > 100 µM (inactive)
GI50 (SK-MEL-5): > 100 µM (inactive)
GI50 (SK-MEL-2): > 100 µM (inactive)
GI50 (SF-295): > 100 µM (inactive)
GI50 (UACC-62): > 100 µM (inactive)
GI50 (CCRF-CEM): 53.8 µM (inactive)
GI50 (LOX IMVI): > 100 µM (inactive)
GI50 (SK-OV-3): > 100 µM (inactive)
GI50 (HCT-116): 81.3 µM (inactive)
